# Key:
# [1] = Singlet oxygen generation in aqueous solution, ABDA absorbance (Example 8, Experiment 2); type: physicochemical; conditions: for absorbance of ABDA at 378 nm with light irradiation: 50 μM ABDA, white light 300 mW/cm^2, 0-6 min
# Experimental: (§1) Different reactive oxygen indicators were added to the photosensitized probe aqueous solution, and the fluorescence or absorption spectra were measured. Four experiments were conducted as follows:
# 50 μM ABDA was added to the aqueous solutions of PBS, 2 μM photosensitized probe, 2 μM photosensitized probe+0.8 mM RNA, and 2 μM RB (a commercial singlet oxygen-generating photosensitizer). These solutions were irradiated for 0-6 min with the white light (300 mW/cm^2) of the xenon lamp, absorption spectra at 300-600 nm were measured, and the absorbance values at 378 nm were recorded to indicate the generation rate of singlet oxygen.
# HeLa cells [2] = experiment: Fluorescence imaging of live HeLa cells stained with the probe, before and after light irradiation (Example 3); type: cell-based; conditions: 10 μM
# Experimental: The following three groups of experiments were performed: (1) The cells were stained in darkness for 30 min, and then irradiated by a white light of the mercury lamp for 5 min; (2) The cells were stained in darkness for 30 min, without light irradiation. (1) The cells were stained in darkness for 10 min. (2) The cells were stained in darkness for 30 min. (3) The cells were stained in darkness for 60 min. (4) The cells were stained in darkness for 120 min. (1) The cells were stained for 30 min, and then irradiated by light at 510-560 nm for 10 seconds. (2) The cells were stained for 30 min, and then irradiated by light at 510-560 nm for 1 minute. (3) The cells were stained for 30 min, and then irradiated by light at 510-560 nm for 2 min. (4) The cells were stained for 30 min, and then irradiated by light at 510-560 nm for 3 min. (5) The cells were stained for 30 min, and then irradiated by light at 510-560 nm for 4 min. (6) The cells were stained for 30 min, and then irradiated by light at 510-560 nm for 5 min. The stained cells were observed under a fluorescence microscope and a confocal laser scanning microscope and the stained regions, fluorescence distributions, and intensity changes in cells were recorded.
# HeLa cells [3] = experiment: Reactive oxygen species in HeLa cells before and after photodynamic therapy, DCFH-DA (Example 9); type: cell-based; conditions: 10 μM probe, 10 μM DCFH-DA, mercury lamp 510-560 nm, 3 min
# Experimental: (§2) The glass-bottom cell culture dishes covered with HeLa cells prepared in Example 2 were washed three times with PBS, then incubated with 10 μM DCFH-DA in a CO2 incubator in darkness for 30 min. […] The stained cells were observed under a confocal laser scanning microscope, and the fluorescence distribution and intensity changes in the cells before and after the photodynamic therapy (irradiated with mercury lamp at 510-560 nm) were recorded.
# ribonucleic acid [4] = experiment: Binding mode with ribonucleic acid, circular dichroism spectra (Example 14); conditions: 10 μM in PBS, 5 min
# Experimental: 10 μM (E)-4-(2-(5-methoxy-1H-indole-3-)vinyl)-1-methylquinolinium iodide was mixed with ribonucleic acid and deoxyribonucleic acid in PBS for 5 min, and the circular dichroism spectra were measured.
# [5] = Generation rate of all types of reactive oxygen species in aqueous solution, DCFH (Example 8, Experiment 1); type: physicochemical; conditions: 2 μM probe + 0.8 mM RNA, white light 300 mW/cm^2, 0-180 s
# Experimental: as §1
# 10 μM 2′,7′-dichlorodihydrofluorescein (DCFH) was added to aqueous solutions of PBS, 2 μM photosensitized probe, 2 μM photosensitized probe of the application+0.8 mM RNA, and 2 μM Rose Bengal B (RB). These solutions were irradiated for 0-180 s with white light (300 mW/cm^2) of a xenon lamp with ultraviolet light filtered out, fluorescence spectra at 500-700 nm were measured under 488 nm excitation, and the fluorescence intensities at 529 nm were recorded to indicate the generation rate of all types of reactive oxygen species.
# [6] = Oxygenous radicals by electron spin resonance with DMPO (Example 8, Experiment 4); type: physicochemical; conditions: white light 300 mW/cm^2, 5 min
# Experimental: as §1
# DMPO was added to the aqueous solutions of RNA, 2 μM photosensitized probe of the application, 2 μM photosensitized probe+0.8 mM RNA. These solutions were irradiated for 5 min by the white light (300 mW/cm^2) of the xenon lamp. The electron spin resonance spectra before and after irradiation were measured, and the signal intensities indicate the amount of hydroxyl radicals.
# ribonucleic acid [7] = experiment: Recognition of ribonucleic acid and deoxyribonucleic acid in solution, absorption/fluorescence spectra (Example 5); type: binding; conditions: 10 μM probe
# Experimental: A probe solution at concentration of 10 μM was mixed with a 120 μg/mL ribonucleic acid/deoxyribonucleic acid in PBS for 5 min, respectively, and then ultraviolet-visible absorption spectra and the fluorescence spectra under excitation at 488 nm were measured.
# [8] = tested on: 4T1 cell subcutaneous tumor
# Experimental: The 4T1 cells were cultured adherently in a culture medium containing a 10% fetal bovine serum, in a saturated humidity incubator with 5% CO2 at 37° C., and subcultured every 2-3 days. After the cells have grown to the logarithmic phase, the cells were subcutaneously inoculated into the right hind leg of a nude mouse: Specifically, the overgrown cells in the T25 cell culture flask were washed with 1 mL 0.25% trypsin, and then digested with another 1 mL 0.25% trypsin for 1 to 2 min. After adding the fresh medium, the cells were evenly pipetted, counted, centrifuged and washed with PBS three times, the cell density was controlled with the added amount of PBS to make a final concentration of cells to be 1×107 per milliliter. After that the cells were inoculated subcutaneously into the right hind leg of nude mice, each with approximately 1.2×10^6 cells. After the tumors grow for approximately a week, the mice were used for tumor photodynamic therapy and in vivo fluorescence imaging experiments.
# The nude mouse tumor models prepared in Example 7 were divided into three groups for intratumor injection of drugs, with a dosage of 50 μL (1 mM) per tumor volume 100 mm^3.
# After the photodynamic therapy, the tumor tissues are sectioned and stained with TUNEL and HE, and the results are shown in FIG. 19.
# [9] = tested on: ribonucleic acid in the fixed cells; experiment: DNase and RNase digestion experiments in fixed HeLa cells (Example 4); type: cell-based; conditions: 50 μg/mL RNase 2 h, 10 μM probe 30 min
# Experimental: Preparation of fixed cells: firstly, the cover glasses (slides) covered with HeLa cells prepared in Example 2 were soaked in a 4% paraformaldehyde solution for 30 min, and then permeated with a 0.5% Triton X-100 at room temperature for 2 min to prepare fixed cells for staining.
# Three groups of the above fixed cells were taken, in which, two groups were added with a 2 U/mL RNase-free DNase and a 50 μg/mL DNase-free RNase for digestion in the incubator for 2 h individually.
# The stained slides were observed under a wide-field fluorescence microscope to record the stained regions, fluorescence distribution, and intensity changes in the cells.
# Ribonucleic acid (RNA) = experiment: Specific fluorescence recognition of biomolecules in solution (Example 13); type: binding; conditions: 2 μM probe
# Experimental: After interaction for 5 min, the fluorescence spectra under excitation at 500 nm were measured, and the fluorescence intensities at 600 nm were recorded. Biomolecules include: Ribonucleic acid (RNA, 1.6 mM), deoxyribonucleic acid (DNA, 1.6 mM), amino acids (10 mM), hydrogen peroxide (10 mM), and metal ions (10 mM); in which, the amino acids include: Glutathione (GSH), homocysteine (Hcy), cysteine (Cys), glycine […], alanine (Ala), norvaline (Nor), glutamate (Glu), histidine (his), isoleucine (Iso), leucine (Leu), methionine (Met), phenylalanine (Phe), proline (Pro), serine (Ser), threonine (Thr), tryptophan (Try), and tyrosine (Tyr); and the metal ions include: Ca^2+, Fe^3+, Mg^2+, and Zn^2+.
# HeLa cells [10] = experiment: Dark toxicity to HeLa cells, MTT method (Example 16); type: cell-based; conditions: 0-20 μM
# Experimental: The HeLa cells prepared in Example 2 were incubated in a 96-well plate with 1×10^4 cells per well. […] The cell viability was determined by the MTT method to determine the dark toxicity of the probe.
# [11] = tested on: mitochondria of HeLa cells; experiment: Colocalization with Mito-Tracker Green (MTG) in HeLa cells before and after photodynamic therapy (Example 10); type: cell-based; conditions: 10 μM probe, 1 μM MTG
# Experimental: as §2, with “with a 1” for “with 10”, “μM MTG” for “μM DCFH-DA”, “and” for “and the”, “(irradiated by” for “(irradiated with”
# HeLa cells [12] = experiment: Cell morphology (DIC) of HeLa cells during photodynamic therapy (Example 12); type: cell-based; conditions: 10 μM probe, 510-560 nm, 3 min irradiation
# Experimental: The resulting stained cells and a control group without the photosensitized probe incubation were observed under a fluorescence microscope, and differential interference contrast images of the cells during the photodynamic therapy (irradiated with mercury lamp at 510-560 nm) were recorded.
# [13] = Hydroxyl radical generation in aqueous solution, APF fluorescence (Example 8, Experiment 3); type: physicochemical; conditions: 10 μM APF, white light 300 mW/cm^2, 0-180 s
# Experimental: as §1
# 10 μM APF was added to the aqueous solutions of PBS, 2 μM photosensitized probe, 2 μM photosensitized probe+0.8 mM RNA, 2 μM RB (a commercial singlet oxygen-generating photosensitizer). These solutions were irradiated for 0-180 s with the white light (300 mW/cm^2) of the xenon lamp, the fluorescence spectra at 500-700 nm were measured, and the fluorescence intensities at 514 nm were recorded to indicate the generation rate of hydroxyl radical.
# HeLa cells [14] = experiment: Mitochondrial membrane potential of HeLa cells, JC-10 (Example 11); type: cell-based; conditions: 10 μM probe, mercury lamp 510-560 nm
# Experimental: The cells were observed under a confocal laser scanning microscope, and the fluorescence distribution and intensity changes in the cells before and after photodynamic therapy (irradiated by mercury lamp at 510-560 nm) were recorded.
# HeLa cells [15] = experiment: Photodynamic therapy efficiency to HeLa cells, MTT method (Example 16); type: cell-based; conditions: 5-20 μM, 30 min in darkness, xenon lamp white light 5 min
# HeLa cells [16] = experiment: Flow cytometry fluorescence intensity of HeLa cells before and after photodynamic therapy (Example 15); type: cell-based; conditions: 10 μM 30 min, xenon lamp white light 5 min
# Experimental: Three groups of HeLa cells prepared in Example 2 were washed three times with PBS. […] The three groups of cells were digested in darkness and dispersed in PBS, and the number of cells and their fluorescence intensities are recorded and analyzed by flow cytometry was.
# [17] = 120 μg/mL RNA in PBS, 5 min, excitation 488 nm
structure (smiles),measurement,setting,value
"O=C1OC2(c3cc(I)c(O)c(I)c3Oc3c2cc(I)c(O)c3I)c2c(Cl)c(Cl)c(Cl)c(Cl)c21 [RB, Rose Bengal B, reference compound]",absorbance of ABDA at 378 nm with light irradiation,"[1]; 2 μM, without RNA",decreases much faster
"COc1ccc2[nH]cc(/C=C/c3cc[n+](C)c4ccccc34)c2c1.[I-] [photosensitized probe 1, (E)-4-(2-(5-methoxy-1H-indole-3-)vinyl)-1-methylquinolinium iodide]",fluorescence of live cells stained in darkness with increasing incubation time,HeLa cells [2]; darkness 10-120 min,relatively weak red fluorescence only in the cytoplasm regions
same,fluorescence with increasing light irradiation time,"HeLa cells [2]; stained 30 min, 510-560 nm green light 10 s-5 min",the fluorescence gradually increases
same,fluorescence of live cells after light irradiation,"HeLa cells [2]; stained 30 min, mercury lamp white light 5 min, 488 nm excitation",strong red fluorescence in the cytoplasm and nucleolus region
same,fluorescence of live cells without light irradiation,"HeLa cells [2]; stained in darkness 30 min, 488 nm excitation, confocal",weak red fluorescence only in the cytoplasm region
same,intensity of green fluorescence of DCFH-DA (reactive oxygen species level in the cells) after irradiation,HeLa cells [3],increases remarkably
same,binding mode with ribonucleic acid,ribonucleic acid [4],minor groove binding
same,circular dichroism spectrum after being mixed with DNA,ribonucleic acid [4],no obvious change
same,circular dichroism spectrum after being mixed with RNA,ribonucleic acid [4],negative Cotton effect
same,rate of reactive oxygen species production (DCFH fluorescence at 529 nm) versus probe alone and RB,[5],significantly higher
same,oxygenous radicals generation (ESR),[6]; 2 μM probe + 0.8 mM RNA,more oxygenous radicals can be generated
same,oxygenous radicals generation (ESR),[6]; 2 μM probe alone,can effectively generate oxygenous radicals
same,fluorescence emission peak after interacting with ribonucleic acid,ribonucleic acid [7]; [17],around 600 nm
same,increase of fluorescence intensity in RNA solution compared with the probe itself,ribonucleic acid [7]; [17],approximately 40 times
same,fluorescence with RNA compared with deoxyribonucleic acid,ribonucleic acid [7]; 120 μg/mL RNA or DNA in PBS,significantly stronger than the fluorescence after binding with deoxyribonucleic acid
same,tumor growth (tumor volume),"[8]; 1+Light, within 16 days of therapy",significantly inhibited
same,fluorescence intensity of the tumor site with the progress of the photodynamic therapy,"[8]; intratumor injection 50 μL (1 mM) per 100 mm^3, 0-10 min during and 10-60 min after therapy",increases significantly
same,fluorescence at the tumor site after the photodynamic therapy,[8]; probe with light irradiation,bright fluorescence at the tumor site
same,TUNEL staining of tumor tissue section,[8]; probe with photodynamic therapy,died in the apoptosis pathway
same,HE staining of tumor tissue section,[8]; probe with photodynamic therapy (third group),seriously damaged
same,fluorescence at the tumor site without the photodynamic therapy,"[8]; probe, fed in darkness",weak fluorescence at the tumor site
same,fluorescence of the cells treated with RNase versus control group,[9],much weaker than that of the control group
same,increase of fluorescence intensity after binding with ribonucleic acid compared with the probe itself,"Ribonucleic acid (RNA); RNA 1.6 mM in PBS, 5 min, excitation 500 nm, emission 600 nm",more than 100 times
same,fluorescence with RNA compared with deoxyribonucleic acid,"Ribonucleic acid (RNA); RNA 1.6 mM, DNA 1.6 mM",significantly stronger than that of the probe after binding with deoxyribonucleic acid
same,fluorescence response to other biomolecules,"Ribonucleic acid (RNA); amino acids, hydrogen peroxide, metal ions 10 mM",no obvious fluorescence response
same,absorbance of ABDA at 378 nm with light irradiation,[1]; 2 μM probe + 0.8 mM RNA,slight decrease
same,singlet oxygen generation compared with RB,"[1]; 2 μM, white light 300 mW/cm^2",generates less singlet oxygen
same,absorbance of ABDA at 378 nm with light irradiation,"[1]; 2 μM, without RNA",slight decrease
same,dark toxicity,HeLa cells [10]; 24 h,very low and negligible
same,cell viability in darkness,"HeLa cells [10]; incubation 24 h, darkness",~100%
same,location of the probe before photodynamic therapy,[11]; darkness,located in the mitochondria
same,location of the probe after photodynamic therapy,[11]; mercury lamp 510-560 nm,migration of the photosensitized probe to the cytoplasm and nucleolus regions
same,cell morphology after light irradiation (symbol of cell apoptosis),HeLa cells [12],many vesicles form near cell membrane
same,hydroxyl radicals generation (APF fluorescence at 514 nm),[13]; 2 μM probe + 0.8 mM RNA,more hydroxyl radicals are generated
same,hydroxyl radicals generation (APF fluorescence at 514 nm),[13]; 2 μM probe alone,can effectively generate hydroxyl radicals
same,mitochondria membrane potential after photodynamic therapy (JC-10 aggregates fluorescence),HeLa cells [14],significantly reduced
same,cell viability after photodynamic therapy,HeLa cells [15],greatly reduced
same,fluorescence intensity of the cells after photodynamic therapy versus group without photodynamic therapy,HeLa cells [16],enhanced significantly
